Results taken from ChEMBL document CHEMBL3885861, “Open TG-GATES”.

Organism: Rattus norvegicus
Test: Open TG-GATES - Regimen: Daily Repeat
Assay type: toxicity, organism-based, Sprague-Dawley
Design: regimen Daily Repeat, gender Male, age 6 weeks
Conditions: in vivo, po, 300 mg/kg, route gavage, dose level High; for APTT / Bas / Eos / Fbg / Hb / Ht / Lym / MCH / MCHC / MCV / Mono / Neu / PT / Plat / RBC / Ret / WBC: tissue Blood; for KIDNEY_L / KIDNEY_R / KIDNEY_TOTAL: tissue Kidney; for LIVER: tissue Liver; for A/G / ALP / ALT / AST / BUN / CRE / Ca / Cl / DBIL / GLC / IP / K / LDH / Na / PL / RALB / TBIL / TC / TG / TP / gamma-GTP: tissue Plasma

`CC(=O)Nc1ccc2c(c1)Cc1ccccc1-2` [2-ACETYLAMINOFLUORENE] was tested, and the TERMINAL_BW (72 h, time 3 day) was 193.8 g, the APTT (72 h, time 3 day) was 20.9 s and the Bas (72 h, time 3 day) was 0.8%. For the same compound, the Eos (72 h, time 3 day) was 0.8%, the Fbg (72 h, time 3 day) was 229.4 mg/dL and the Hb (72 h, time 3 day) was 15.2 g/dL. It also gave a Ht (72 h, time 3 day) of 43.9%, a Lym (72 h, time 3 day) of 71.4% and an MCH (72 h, time 3 day) of 21.2 pg. It also gave an MCHC (72 h, time 3 day) of 34.6%, an MCV (72 h, time 3 day) of 61.2 fL and a Mono (72 h, time 3 day) of 3%. The Neu (72 h, time 3 day) was 23.2%, the PT (72 h, time 3 day) was 12.8 s and the Plat (72 h, time 3 day) was 140.3 x10_4/uL. For the same compound, the RBC (72 h, time 3 day) was 716.4 x10_4/ul, the Ret (72 h, time 3 day) was 2.9% and the WBC (72 h, time 3 day) was 127.6 x10_2/uL. It also gave a KIDNEY_L (72 h, time 3 day) of 0.9 g, a KIDNEY_R (72 h, time 3 day) of 0.9 g and a KIDNEY_TOTAL (72 h, time 3 day) of 1.9 g. It also gave an LIVER (72 h, time 3 day) of 9.4 g, an A/G (72 h, time 3 day) of 1.5 and an ALP (72 h, time 3 day) of 595 IU/L. For the same compound, the ALT (72 h, time 3 day) was 24 IU/L, the AST (72 h, time 3 day) was 72.2 IU/L and the BUN (72 h, time 3 day) was 10.2 mg/dL. The CRE (72 h, time 3 day) was 0.4 mg/dL, the Ca (72 h, time 3 day) was 9.9 mg/dL and the Cl (72 h, time 3 day) was 105.8 meq/L. The DBIL (72 h, time 3 day) was 0.096 mg/dL, the GLC (72 h, time 3 day) was 193.6 mg/dL and the IP (72 h, time 3 day) was 7.4 mg/dL. It also gave a K (72 h, time 3 day) of 4.3 meq/L, an LDH (72 h, time 3 day) of 281.2 IU/L and a Na (72 h, time 3 day) of 142.4 meq/L. It also gave a PL (72 h, time 3 day) of 93.2 mg/dL, an RALB (72 h, time 3 day) of 2.9 g/dL and a TBIL (72 h, time 3 day) of 0.2 mg/dL. The TC (72 h, time 3 day) was 49.2 mg/dL, the TG (72 h, time 3 day) was 52.2 mg/dL and the TP (72 h, time 3 day) was 5 g/dL. The gamma-GTP (72 h, time 3 day) was 1.2 IU/L, the TERMINAL_BW ([…], time 7 day) was 219.8 g and the TERMINAL_BW ([…], time 14 day) was 246.4 g. The TERMINAL_BW ([…], time 28 day) was 274 g, the APTT ([…], time 7 day) was 19.8 s and the Bas ([…], time 7 day) was 0.6%. For the same compound, the Eos ([…], time 7 day) was 1%, the Fbg ([…], time 7 day) was 207 mg/dL and the Hb ([…], time 7 day) was 12.9 g/dL. It also gave a Ht ([…], time 7 day) of 36%, a Lym ([…], time 7 day) of 68.2% and an MCH ([…], time 7 day) of 21.4 pg. For the same compound, the MCHC ([…], time 7 day) was 35.9%, the MCV ([…], time 7 day) was 59.5 fL and the Mono ([…], time 7 day) was 3%. For the same compound, the Neu ([…], time 7 day) was 26.4%, the PT ([…], time 7 day) was 12.4 s and the Plat ([…], time 7 day) was 184.8 x10_4/uL. It also gave an RBC ([…], time 7 day) of 605.6 x10_4/ul, a Ret ([…], time 7 day) of 4.7% and a WBC ([…], time 7 day) of 186.5 x10_2/uL. For the same compound, the APTT ([…], time 14 day) was 21.6 s, the Bas ([…], time 14 day) was 0.6% and the Eos ([…], time 14 day) was 0%. For the same compound, the Fbg ([…], time 14 day) was 169.6 mg/dL, the Hb ([…], time 14 day) was 13.2 g/dL and the Ht ([…], time 14 day) was 40.3%. It also gave a Lym ([…], time 14 day) of 73.2%, an MCH ([…], time 14 day) of 22.8 pg and an MCHC ([…], time 14 day) of 32.7%. It also gave an MCV ([…], time 14 day) of 70 fL, a Mono ([…], time 14 day) of 2.6% and a Neu ([…], time 14 day) of 23%. It also gave a PT ([…], time 14 day) of 13.5 s, a Plat ([…], time 14 day) of 163 x10_4/uL and an RBC ([…], time 14 day) of 576.8 x10_4/ul. It also gave a Ret ([…], time 14 day) of 14.7%, a WBC ([…], time 14 day) of 142.6 x10_2/uL and an APTT ([…], time 28 day) of 23 s. For the same compound, the Bas ([…], time 28 day) was 0%, the Eos ([…], time 28 day) was 0.4% and the Fbg ([…], time 28 day) was 142 mg/dL. For the same compound, the Hb ([…], time 28 day) was 13.2 g/dL, the Ht ([…], time 28 day) was 39.8% and the Lym ([…], time 28 day) was 67.6%. It also gave an MCH ([…], time 28 day) of 20.9 pg, an MCHC ([…], time 28 day) of 33.1% and an MCV ([…], time 28 day) of 63.1 fL. For the same compound, the Mono ([…], time 28 day) was 2.6%, the Neu ([…], time 28 day) was 27.8% and the PT ([…], time 28 day) was 13.3 s. It also gave a Plat ([…], time 28 day) of 134.9 x10_4/uL, an RBC ([…], time 28 day) of 632.8 x10_4/ul and a Ret ([…], time 28 day) of 10.2%. The WBC ([…], time 28 day) was 131.2 x10_2/uL, the KIDNEY_L ([…], time 7 day) was 1 g and the KIDNEY_R ([…], time 7 day) was 1 g. The KIDNEY_TOTAL ([…], time 7 day) was 2 g, the KIDNEY_L ([…], time 14 day) was 1.1 g and the KIDNEY_R ([…], time 14 day) was 1 g. The KIDNEY_TOTAL ([…], time 14 day) was 2.1 g, the KIDNEY_L ([…], time 28 day) was 1.2 g and the KIDNEY_R ([…], time 28 day) was 1.2 g. The KIDNEY_TOTAL ([…], time 28 day) was 2.3 g, the LIVER ([…], time 7 day) was 11.5 g and the LIVER ([…], time 14 day) was 13.3 g. The LIVER ([…], time 28 day) was 13.2 g, the A/G ([…], time 7 day) was 1.5 and the ALP ([…], time 7 day) was 616.8 IU/L. It also gave an ALT ([…], time 7 day) of 32 IU/L, an AST ([…], time 7 day) of 75.8 IU/L and a BUN ([…], time 7 day) of 13 mg/dL. It also gave a CRE ([…], time 7 day) of 0.5 mg/dL, a Ca ([…], time 7 day) of 10.4 mg/dL and a Cl ([…], time 7 day) of 102.8 meq/L. For the same compound, the DBIL ([…], time 7 day) was 0.1 mg/dL, the GLC ([…], time 7 day) was 165.8 mg/dL and the IP ([…], time 7 day) was 6.5 mg/dL. For the same compound, the K ([…], time 7 day) was 4 meq/L, the LDH ([…], time 7 day) was 224.2 IU/L and the Na ([…], time 7 day) was 138.4 meq/L. The PL ([…], time 7 day) was 113.2 mg/dL, the RALB ([…], time 7 day) was 2.8 g/dL and the TBIL ([…], time 7 day) was 0.2 mg/dL. It also gave a TC ([…], time 7 day) of 51.6 mg/dL, a TG ([…], time 7 day) of 115 mg/dL and a TP ([…], time 7 day) of 4.7 g/dL. The gamma-GTP ([…], time 7 day) was 1 IU/L, the A/G ([…], time 14 day) was 1.5 and the ALP ([…], time 14 day) was 611.4 IU/L. For the same compound, the ALT ([…], time 14 day) was 39.8 IU/L, the AST ([…], time 14 day) was 70.4 IU/L and the BUN ([…], time 14 day) was 13.2 mg/dL. It also gave a CRE ([…], time 14 day) of 0.5 mg/dL, a Ca ([…], time 14 day) of 9.9 mg/dL and a Cl ([…], time 14 day) of 104.8 meq/L. For the same compound, the DBIL ([…], time 14 day) was 0.2 mg/dL, the GLC ([…], time 14 day) was 160.6 mg/dL and the IP ([…], time 14 day) was 6.8 mg/dL. It also gave a K ([…], time 14 day) of 4.3 meq/L, an LDH ([…], time 14 day) of 190 IU/L and a Na ([…], time 14 day) of 141 meq/L. It also gave a PL ([…], time 14 day) of 135.4 mg/dL, an RALB ([…], time 14 day) of 2.9 g/dL and a TBIL ([…], time 14 day) of 0.3 mg/dL. It also gave a TC ([…], time 14 day) of 54.8 mg/dL, a TG ([…], time 14 day) of 154.4 mg/dL and a TP ([…], time 14 day) of 4.8 g/dL. For the same compound, the gamma-GTP ([…], time 14 day) was 1.2 IU/L, the A/G ([…], time 28 day) was 1.3 and the ALP ([…], time 28 day) was 649.6 IU/L. It also gave an ALT ([…], time 28 day) of 42.4 IU/L, an AST ([…], time 28 day) of 72.6 IU/L and a BUN ([…], time 28 day) of 14 mg/dL. It also gave a CRE ([…], time 28 day) of 0.5 mg/dL, a Ca ([…], time 28 day) of 9.8 mg/dL and a Cl ([…], time 28 day) of 104.8 meq/L. It also gave a DBIL ([…], time 28 day) of 0.3 mg/dL, a GLC ([…], time 28 day) of 162.2 mg/dL and an IP ([…], time 28 day) of 6.6 mg/dL. The K ([…], time 28 day) was 3.7 meq/L, the LDH ([…], time 28 day) was 169.8 IU/L and the Na ([…], time 28 day) was 140.4 meq/L. The PL ([…], time 28 day) was 145.6 mg/dL, the RALB ([…], time 28 day) was 2.7 g/dL and the TBIL ([…], time 28 day) was 0.4 mg/dL. The TC ([…], time 28 day) was 59.4 mg/dL, the TG ([…], time 28 day) was 134.8 mg/dL and the TP ([…], time 28 day) was 4.8 g/dL. For the same compound, the gamma-GTP ([…], time 28 day) was 4.8 IU/L.
